Laboratory results as given in patent US20250114371A1, “BIOMARKER AND PATIENT SELECTION IN TREATMENT FOR MYELOFIBROSIS” (GlaxoSmithKline LLC, priority 2021, published 2025).
Like-named read-outs stand apart in the source and are kept apart here.

Assays:
[1] = system: patients with myelofibrosis naïve to treatment with a JAK inhibitor; conditions: Mesa et al., cited from earlier work
[2] = system: anemic or thrombocytopenic subjects with myelofibrosis previously treated with ruxolitinib; conditions: Harrison et al., cited from earlier work
[3] = system: myelofibrosis patients with low platelet counts; assay: Re-analysis of the data from the SIMPLIFY-1 and SIMPLIFY-2 trials by platelet count; format: in vivo, human; conditions: patients whose platelet counts are 150×109 per liter or below
[4] = system: transfusion-dependent myelofibrosis patients; conditions: Oh et al. 2020, cited from earlier work
[5] = system: anemic or thrombocytopenic subjects with myelofibrosis previously treated with ruxolitinib; assay: SIMPLIFY-2 Phase 3 trial, MMB versus best available therapy (BAT); format: in vivo, human; conditions: for Response Ratio (MMB/Control): TI response at week 24, MMB/BAT
Excerpt: In the SIMPLIFY-2 trial (NCT02101268; GS-US-352-1214), the efficacy and safety of MMB versus best available treatment (BAT) was studied in anemic or thrombocytopenic subjects with myelofibrosis who were previously treated with ruxolitinib (RUX). There was no lower limit for the required baseline platelet count. […] The primary endpoint was a reduction by at least 35% in the spleen volume at 24 weeks compared with baseline.
(§1) The relationship between W24 response and overall survival (OS) was explored in patients randomized to MMB in the SIMPLFY-1 (S1) and SIMPLIFY-2 (S2) trials.
(§2) Responders were defined as follows: • W24 TI response (TI-R): no RBC transfusion within ?12 weeks immediately prior to W24, with Hgb≥8 g/dL • W24 spleen response: ≥35% spleen volume reduction vs baseline (BL) • W24 symptom response: ≥50% reduction in MFSAF total symptom score vs BL
(§3) Survival from baseline was estimated using K-M analysis with descriptive log-rank tests for comparison applied (all p values are descriptive). Hazard ratios were computed using proportional hazard regression. To adjust for the time to response bias, overall survival from W24 was also compared. As patients randomized to the control arm in both studies and crossed over to open label MMB after 24 weeks of randomized treatment, a valid comparison of overall survival with patients randomized to RUX or BAT/RUX vs MMB was not possible, therefore, only the MMB arm was analyzed.
(§4) Based on the findings from the Phase 2 translational biology study we retrospectively analyzed the relationship between serum ferritin, hepcidin and C-reactive protein (CRP) and the W24 TI response rates for patients randomized to MMB and RUX in the S1 study using univariate analyses and multiple logistic regression models. These findings were then independently confirmed in the previously RUX treated patients in S2.

[6] = system: patients with myelofibrosis naïve to treatment with a JAK inhibitor; assay: SIMPLIFY-1 Phase 3 trial, MMB versus RUX, 24 weeks randomized treatment; format: in vivo, human; conditions: for Response Ratio (MMB/Control): TI response at week 24, MMB/RUX; for 3-year survival: patients randomized to MMB; for Week 24 TI response rate: patients with baseline anemia; for mean ferritin change at W24 from baseline: serum ferritin, irrespective of baseline ferritin
Procedure: In the SIMPLIFY-1 trial (NCT01969838; GS-US-352-0101), the efficacy and safety of MMB versus ruxolitinib (RUX) was studied in patients with myelofibrosis who were naïve to treatment with a JAK inhibitor. Patients (N=432) with high risk or intermediate-2 risk or symptomatic intermediate-1 risk myelofibrosis received 24 weeks of treatment with 200 mg MMB once daily or 20 mg RUX twice a day (or per label), after which all patients could receive open-label momelotinib. […] The primary endpoint was a reduction by at least 35% in the spleen volume at 24 weeks compared with baseline.
as §1, §2, §3, §4

## Cl.N#CCNC(=O)c1ccc(-c2ccnc(Nc3ccc(N4CCOCC4)cc3)n2)cc1 [MMB, N-(cyanomethyl)-4-(2-(4-morpholinophenylamino)pyrimidin-4-yl)benzamide]
[1]; compared to RUX
  transfusion dependence rate: decreased
  transfusion independence rate: increased
  transfusion rate: reduced
[1]; vs RUX, JAKi-naïve patients, 24 weeks
  reduction of spleen size (primary endpoint): noninferior to RUX
[1]; vs RUX
  total symptom score (TSS) response (secondary endpoint): non-inferiority was not demonstrated
[2]; compared to BAT group
  total symptom score (TSS) response: greater
  transfusion dependence: lower
  transfusion independence: higher
  transfusions: fewer
[2]; vs BAT
  reduction of spleen size (primary endpoint): not superior to BAT
[3]
  reducing spleen size (SSR), improving total symptom scores (TSS), improving transfusion independence rates: effective
  thrombocytopenia: without momelotinib administration causing thrombocytopenia
[4]
  hepcidin: acutely and chronically suppresses elevated levels of hepcidin
[4]; listed as momelotinib
  hepcidin: inhibited
[4]; transfusion-dependent myelofibrosis patients
  transfusion dependency: reversed or reduced
[5]; MMB symptom (TSS) responders vs TSS nonresponders
  overall survival hazard ratio (HR): 0.67
[5]; baseline ferritin <90 ng/mL
  Response Ratio (MMB/Control): 1.1429
[5]; baseline ferritin ≥90 ng/mL
  Response Ratio (MMB/Control): 3.7949
[5]; all patients randomized to MMB, W24 TI responders vs TI non-responders
  overall survival hazard ratio (HR): 0.57
[6]; MMB W24 spleen responders vs nonresponders
  overall survival hazard ratio (HR): 0.59
[6]; MMB W24 symptom (TSS) responders vs nonresponders
  overall survival hazard ratio (HR): 0.66
[6]; MMB patients with anemia at baseline, W24 TI-R vs nonresponders
  overall survival hazard ratio (HR): 0.32
[6]; MMB vs RUX, irrespective of baseline anemia, platelet count or transfusion status (FIGS. 1-3)
  W24 TI-R rate: higher in patients randomized to MMB vs RUX
[6]; baseline ferritin <90 ng/mL
  Response Ratio (MMB/Control): 1.0843
[6]; baseline ferritin ≥90 ng/mL
  Response Ratio (MMB/Control): 1.7538
[6]; all patients randomized to MMB, W24 TI responders vs TI nonresponders
  overall survival hazard ratio (HR): 0.30
[6]; compared to RUX (FIGS. 12 and 13)
  stabilizing ferritin over time: more effective at stabilizing ferritin over time when compared to RUX
[6]; each ferritin cohort (FIG. 14)
  W24 TI-R by baseline ferritin cohort: superior to RUX for each ferritin cohort
[6]; ferritin levels exceed 650 ng/mL (FIG. 14)
  W24 TI-R by baseline ferritin cohort: nominally better than RUX
[6]; TI nonresponders at W24
  3-year survival: 50%
[6]; TI responders at W24
  3-year survival: 80%
[6]
  Week 24 TI response rate: 45%
  mean ferritin change at W24 from baseline: +13.8 ng/mL

## N#CC[C@H](C1CCCC1)n1cc(-c2ncnc3[nH]ccc23)cn1 [RUX, Ruxolitinib, reference compound]
[6]
  Week 24 TI response rate: 26%
  mean ferritin change at W24 from baseline: +226.1 ng/mL
